“And” between values parts separate entries of the source, which are not always exact repeats. Equal values may be shown once. Read-outs that look alike come from different tables or passages of the source.
Columns and labels:
OCI-AML5 cells = test: Dose-response proliferative assay in OCI-AML5 (4 days, CellTiterGlo); format: cell-based, H. sapiens; settings: OCI-AML5 cells; read-out: IC50 in AML5
Procedure, shortened: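 OCI-AML5 cells in αMEM, 10% heat-inactivated FBS plus 10 ng/mL GM-CSF, 300 cells/well, exposed to 8-point 1:4 serial dilutions (10 μM down to 0.5 nM). Viability read after 4 days in culture at 37 °C, 5% CO2.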

CDK12/Cyclin K = target: T1, CDK12/Cyclin K (Homo sapiens, UniProt Q9NYV4); test: CDK12/CyclinK in vitro kinase assay (BPS kit, Kinase Glo MAX); format: biochemical; settings: in % (unit assumed)
T1 construct: purchased BPS Bioscience 78298
Experimental: (§1) Kinase activity was assessed using the kinase assay kits from BPS Bioscience for CDK1, CDK9 and CDK12 with Kinase Glo MAX in duplicates. Compounds were tested at a single concentration of 1 μM for CDK1 and CDK9 activity, and in a dilution ranging from 0.64 nM to 50 μM for CDK12 activity. Chemiluminescence was read using the Neo Synergy BioTek plate reader.

primary AML specimens = test: Dose-response assays in primary AML specimens (6 days, CellTiterGlo); format: cell-based, human; settings: 6 days, read-out: IC50
Experimental: Freshly thawed primary AML specimens were used for chemical screens. Cryopreserved cells were thawed at 37 °C in IMDM containing 20% FBS and DNase I (100 μg/mL). Cells were resuspended in IMDM supplemented with 15% BIT (BSA, insulin, transferrin; StemCell Technologies), 100 ng/mL SCF, 50 ng/mL FLT3L, 20 ng/mL IL3, 20 ng/mL G-CSF, 10^−4 mol/L b-mercaptoethanol, gentamicin (50 μg/mL), ciprofloxacin (10 μg/mL), SR1 (500 nmol/L) and UM729 (500 nmol/L). Cells were plated in 384-well white plates, 5000 cells per well in 50 μL. Compounds were dissolved in DMSO, diluted in media immediately before use and added to seeded cells at the unique concentration of 1 μM. Control wells received DMSO (0.1%) only. Cell viability was evaluated after 6 days in culture using the CellTiterGlo assay according to the manufacturer’s instruction. Percentage of inhibition for dose response curves was calculated as 100 – (100 × (mean luminescence [compound]/mean luminescence [DMSO])). Dose response curves were generated using nonlinear regression in GraphPad Prism version.
Dose-response assays in primary AML specimens were performed as in chemical screen (see above) with the exception that compounds were tested in serial dilution (8 dilutions, 1:4, 10 μM down to 0.5 nM). Dose-response assays in OCI-AML5 cell line were conducted similarly with the following modifications: 300 cells per well were seeded in 50 μL of cell line media and cell viability was evaluated after 4 days in culture.

[1] = tested on: OCI-AML5 cells expressing shRNAs targeting CDK1, 2, 4, 7, 9, cyclin K; test: Dose response in OCI-AML5 expressing shRNAs targeting CDK1, 2, 4, 7, 9, cyclin K or control; format: cell-based, H. sapiens; settings: for IC50: OCI-AML5, 4 days
cyclin KeGFP = test: Cyclin KeGFP reporter system (eGFP/mCherry MFI by flow cytometry);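 on % degradation cyclin K-eGFP: 10 μM compound for 3 h relative to DMSO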; format: cell-based, H. sapiens
Procedure, shortened: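 OCI-AML5 clone G7 carrying lentiviral cyclin KeGFP/mCherry reporter. eGFP and mCherry geometric MFI measured by flow cytometry; eGFP/mCherry ratio normalized to DMSO-treated cells.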

CDK9/CyclinT = target: T2, CDK9/CyclinT (Homo sapiens, UniProt P50750); test: CDK9/CyclinT in vitro kinase activity, single concentration 1 μM; format: biochemical; settings: single concentration 1 μM
T2 construct: purchased BPS Bioscience 79628
Experimental: as §1

T1 sequence (Q9NYV4 whole entry): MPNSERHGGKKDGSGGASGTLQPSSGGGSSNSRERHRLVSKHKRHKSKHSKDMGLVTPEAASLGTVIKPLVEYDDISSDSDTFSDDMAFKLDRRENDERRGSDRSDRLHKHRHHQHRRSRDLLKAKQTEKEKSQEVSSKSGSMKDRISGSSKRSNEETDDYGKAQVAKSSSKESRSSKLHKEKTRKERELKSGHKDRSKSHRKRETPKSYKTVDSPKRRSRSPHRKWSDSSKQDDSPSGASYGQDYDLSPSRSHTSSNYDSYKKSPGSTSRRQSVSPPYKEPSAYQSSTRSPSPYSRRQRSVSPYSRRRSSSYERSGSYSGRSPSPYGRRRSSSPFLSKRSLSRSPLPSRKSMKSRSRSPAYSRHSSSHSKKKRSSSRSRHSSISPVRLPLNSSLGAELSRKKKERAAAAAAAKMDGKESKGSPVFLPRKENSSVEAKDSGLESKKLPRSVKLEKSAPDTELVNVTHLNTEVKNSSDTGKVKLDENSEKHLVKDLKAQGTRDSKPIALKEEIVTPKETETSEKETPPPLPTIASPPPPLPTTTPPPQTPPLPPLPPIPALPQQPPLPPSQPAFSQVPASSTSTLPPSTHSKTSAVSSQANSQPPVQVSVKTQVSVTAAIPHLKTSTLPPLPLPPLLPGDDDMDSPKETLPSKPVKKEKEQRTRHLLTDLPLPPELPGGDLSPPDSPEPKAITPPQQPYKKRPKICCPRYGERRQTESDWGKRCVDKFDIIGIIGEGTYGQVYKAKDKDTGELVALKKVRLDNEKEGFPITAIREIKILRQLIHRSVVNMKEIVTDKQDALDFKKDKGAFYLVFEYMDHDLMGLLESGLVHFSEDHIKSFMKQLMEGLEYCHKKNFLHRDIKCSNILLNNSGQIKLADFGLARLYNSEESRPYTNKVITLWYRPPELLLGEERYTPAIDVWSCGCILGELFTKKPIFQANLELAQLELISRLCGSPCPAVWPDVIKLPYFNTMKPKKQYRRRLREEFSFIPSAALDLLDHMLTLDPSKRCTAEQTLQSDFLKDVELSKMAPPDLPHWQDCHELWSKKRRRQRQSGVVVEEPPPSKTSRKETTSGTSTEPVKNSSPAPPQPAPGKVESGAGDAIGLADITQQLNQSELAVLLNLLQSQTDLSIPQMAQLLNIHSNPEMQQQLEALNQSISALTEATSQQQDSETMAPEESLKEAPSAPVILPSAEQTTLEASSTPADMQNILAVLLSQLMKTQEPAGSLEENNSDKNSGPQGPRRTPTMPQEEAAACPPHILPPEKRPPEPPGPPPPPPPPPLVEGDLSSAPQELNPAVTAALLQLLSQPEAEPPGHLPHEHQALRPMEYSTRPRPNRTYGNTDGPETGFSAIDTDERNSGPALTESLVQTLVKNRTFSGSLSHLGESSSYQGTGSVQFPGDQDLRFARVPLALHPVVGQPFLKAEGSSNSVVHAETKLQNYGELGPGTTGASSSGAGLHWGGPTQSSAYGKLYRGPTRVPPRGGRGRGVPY
T1 sequence (O75909 whole entry partner): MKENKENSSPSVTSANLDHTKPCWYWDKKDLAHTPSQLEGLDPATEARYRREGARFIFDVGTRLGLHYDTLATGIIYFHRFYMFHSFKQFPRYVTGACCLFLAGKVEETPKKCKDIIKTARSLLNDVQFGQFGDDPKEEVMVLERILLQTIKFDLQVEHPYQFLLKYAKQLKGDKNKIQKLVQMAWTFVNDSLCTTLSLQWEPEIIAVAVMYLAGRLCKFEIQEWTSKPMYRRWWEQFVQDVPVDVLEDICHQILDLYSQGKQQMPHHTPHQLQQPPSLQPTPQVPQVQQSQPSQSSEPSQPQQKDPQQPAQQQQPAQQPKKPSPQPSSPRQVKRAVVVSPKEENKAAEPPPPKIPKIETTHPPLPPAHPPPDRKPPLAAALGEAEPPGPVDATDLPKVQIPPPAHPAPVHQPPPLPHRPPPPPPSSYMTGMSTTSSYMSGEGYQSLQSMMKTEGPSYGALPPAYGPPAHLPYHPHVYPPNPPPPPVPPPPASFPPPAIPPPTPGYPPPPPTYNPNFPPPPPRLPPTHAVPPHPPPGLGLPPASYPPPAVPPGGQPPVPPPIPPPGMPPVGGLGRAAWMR
T2 sequence (P50750 whole entry): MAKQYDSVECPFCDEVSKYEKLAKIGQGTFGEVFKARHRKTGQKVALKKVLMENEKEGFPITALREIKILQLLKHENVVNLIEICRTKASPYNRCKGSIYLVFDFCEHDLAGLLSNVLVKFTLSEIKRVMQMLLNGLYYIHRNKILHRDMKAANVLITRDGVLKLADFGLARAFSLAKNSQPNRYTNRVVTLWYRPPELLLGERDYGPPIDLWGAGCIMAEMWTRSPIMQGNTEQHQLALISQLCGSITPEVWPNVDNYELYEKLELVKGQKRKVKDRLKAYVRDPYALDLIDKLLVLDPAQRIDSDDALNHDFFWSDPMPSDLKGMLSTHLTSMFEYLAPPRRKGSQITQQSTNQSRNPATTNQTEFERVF
T2 sequence (O60563 whole entry partner): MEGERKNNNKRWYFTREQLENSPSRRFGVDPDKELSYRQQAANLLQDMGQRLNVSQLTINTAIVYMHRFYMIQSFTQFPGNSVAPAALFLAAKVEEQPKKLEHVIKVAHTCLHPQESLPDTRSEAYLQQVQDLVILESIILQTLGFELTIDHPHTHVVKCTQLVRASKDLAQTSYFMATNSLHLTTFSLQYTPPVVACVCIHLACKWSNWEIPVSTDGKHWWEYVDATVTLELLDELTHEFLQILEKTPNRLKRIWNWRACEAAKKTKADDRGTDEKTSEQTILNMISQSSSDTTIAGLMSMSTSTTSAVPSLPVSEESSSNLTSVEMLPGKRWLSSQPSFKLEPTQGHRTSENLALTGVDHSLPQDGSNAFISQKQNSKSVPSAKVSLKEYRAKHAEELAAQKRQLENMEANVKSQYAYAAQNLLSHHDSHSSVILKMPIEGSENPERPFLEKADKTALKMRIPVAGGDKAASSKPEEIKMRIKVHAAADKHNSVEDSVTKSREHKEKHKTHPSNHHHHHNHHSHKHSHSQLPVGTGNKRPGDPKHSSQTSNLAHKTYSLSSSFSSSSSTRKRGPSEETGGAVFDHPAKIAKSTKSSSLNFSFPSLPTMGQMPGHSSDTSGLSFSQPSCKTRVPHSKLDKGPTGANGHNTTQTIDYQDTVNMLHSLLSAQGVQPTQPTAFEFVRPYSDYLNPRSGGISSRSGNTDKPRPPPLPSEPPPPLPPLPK

## CC[C@H](CO)Nc1nc(NCc2ccc(-c3ccccn3)cc2)c2ncn(C(C)C)c2n1 [CR8]
OCI-AML5 cells
  IC50: 56 nM
CDK12/Cyclin K; Log10 (uM) 1
  in vitro inhibition of CDK12/Cyclin K activity: 58.77 and 64.89 and 109.89
CDK12/Cyclin K; Log10 (uM) 1.69897
  in vitro inhibition of CDK12/Cyclin K activity: 81.16 and 77.06 and 130.98
CDK12/Cyclin K; Log10 (uM) -0.39794
  in vitro inhibition of CDK12/Cyclin K activity: 16.88 and 18.59 and 15.49
Primary AML specimens; primary AML specimen 03H109
  IC50: 48.5 nM
Primary AML specimens; primary AML specimen 04H055
  IC50: 123 nM
Primary AML specimens; primary AML specimen 04H096
  IC50: 55 nM
Primary AML specimens; primary AML specimen 04H138
  IC50: 127 nM
Primary AML specimens; primary AML specimen 05H113
  IC50: 48.9 nM
Primary AML specimens; primary AML specimen 05H149
  IC50: 66.3 nM
Primary AML specimens; primary AML specimen 05H193
  IC50: 63.3 nM
Primary AML specimens; primary AML specimen 06H088
  IC50: 74.7 nM
Primary AML specimens; primary AML specimen 06H117
  IC50: 60.2 nM
Primary AML specimens; primary AML specimen 06H151
  IC50: 43 nM
Primary AML specimens; primary AML specimen 07H003
  IC50: 129 nM
Primary AML specimens; primary AML specimen 07H131
  IC50: 154 nM
Primary AML specimens; primary AML specimen 07H144
  IC50: 51.9 nM
Primary AML specimens; primary AML specimen 07H155
  IC50: 144 nM
Primary AML specimens; primary AML specimen 08H018
  IC50: 124 nM
Primary AML specimens; primary AML specimen 08H021
  IC50: 53.6 nM
Primary AML specimens; primary AML specimen 08H056
  IC50: 136 nM
Primary AML specimens; primary AML specimen 08H063
  IC50: 149 nM
Primary AML specimens; primary AML specimen 08H085
  IC50: 63.1 nM
Primary AML specimens; primary AML specimen 08H108
  IC50: 126 nM
Primary AML specimens; primary AML specimen 08H118
  IC50: 50.2 nM
Primary AML specimens; primary AML specimen 09H016
  IC50: 51.5 nM
Primary AML specimens; primary AML specimen 09H070
  IC50: 140 nM
Primary AML specimens; primary AML specimen 10H014
  IC50: 38.9 nM
Primary AML specimens; primary AML specimen 10H046
  IC50: 59.9 nM
Primary AML specimens; primary AML specimen 10H107
  IC50: 76.8 nM
Primary AML specimens; primary AML specimen 10H127
  IC50: 93.5 nM
Primary AML specimens; primary AML specimen 10H161
  IC50: 75.2 nM
Primary AML specimens; primary AML specimen 10H174
  IC50: 54.8 nM
Primary AML specimens; primary AML specimen 11H008
  IC50: 85.8 nM
Primary AML specimens; primary AML specimen 11H019
  IC50: 69.4 nM
Primary AML specimens; primary AML specimen 11H170
  IC50: 162 nM
Primary AML specimens; primary AML specimen 11H217
  IC50: 128 nM
Primary AML specimens; primary AML specimen 11H232
  IC50: 70.1 nM
Primary AML specimens; primary AML specimen 12H033
  IC50: 107 nM
Primary AML specimens; primary AML specimen 12H055
  IC50: 100 nM
Primary AML specimens; primary AML specimen 12H148
  IC50: 74.2 nM
Primary AML specimens; primary AML specimen 13H053
  IC50: 133 nM
Primary AML specimens; primary AML specimen 15H045
  IC50: 43.7 nM
Primary AML specimens; primary AML specimen 17H065
  IC50: 92.3 nM
[1]; read-out: IC50, sh CDK1
  IC50: 69.6 nM and 111 nM and 91.9 nM
[1]; read-out: IC50, sh CDK2
  IC50: 67.6 nM and 80.5 nM and 96.4 nM
[1]; read-out: IC50, sh CDK4
  IC50: 61.8 nM and 75.2 nM and 63.5 nM
[1]; read-out: IC50, sh CDK7
  IC50: 61.1 nM and 84.1 nM and 69.1 nM
[1]; read-out: IC50, sh CDK9
  IC50: 55.2 nM and 60.8 nM and 44.9 nM
[1]; read-out: IC50, sh Cyclin K
  IC50: 13.1 nM and 15.5 nM and 20.6 nM
[1]; read-out: IC50, sh ctrl
  IC50: 55.8 nM and 70.4 nM and 56.2 nM
[1]; class from shRNA IC50 profile and cyclin K-eGFP degradation
  Class: 1
Cyclin KeGFP; OCI-AML5 G7 clone, 3 h, 10 μM, normalized to DMSO (=100)
  MFI of cyclin KeGFP over mCherry: 13.6 and 15.4 and 15.2 and 15.3 and 14.9
Cyclin KeGFP; cyclin K-eGFP reporter
  % degradation cyclin K-eGFP: 86%
CDK9/CyclinT
  % CDK9 inhibition: 100%

— publication PMC12152147, “DDB1 engagement defines the selectivity of S656 analogs for cyclin K degradation over CDK inhibition” (EMBO Reports, 2025)
